Test results from PMC3692398 (Biochemical pharmacology, 2013).
Read-outs that look alike come from different tables or passages of the source.

Tests used:
hDAT [1] = target: T1, hDAT (Homo sapiens, UniProt Q01959); assay: Inhibition of [125I]RTI-55 binding, HEK-hDAT membranes
hSERT [2] = target: T2, hSERT (Homo sapiens, UniProt P31645); assay: Inhibition of [125I]RTI-55 binding, HEK-hSERT membranes
hNET [3] = target: T3, hNET (Homo sapiens, UniProt P23975); assay: biochemical; format: binding
hDAT [4] = target: T1, hDAT; assay: Inhibition of [3H]DA uptake, intact HEK-hDAT cells; format: cell-based
hSERT [5] = target: T2, hSERT; assay: Inhibition of [3H]5-HT uptake, intact HEK-hSERT cells; format: cell-based
hNET [6] = target: T3, hNET; assay: cell-based; format: cell-based
hDAT [7] = target: T1, hDAT; assay: Superfusion release of preloaded [3H]DA from HEK-hDAT cells; format: cell-based
hSERT [8] = target: T2, hSERT; assay: Superfusion release of preloaded [3H]5-HT from HEK-hSERT cells; format: cell-based
hNET [9] = target: T3, hNET; assay: Superfusion release of preloaded [3H]NE from HEK-hNET cells; format: cell-based
hVMAT2 [10] = target: T4, hVMAT2 (Homo sapiens, UniProt Q05940); assay: Inhibition of [3H]DHTB binding, HEK-hVMAT2 membranes
hVMAT2 [11] = target: T4, hVMAT2; assay: Inhibition of [3H]5-HT uptake, HEK-hVMAT2 membrane preparation; format: biochemical
hVMAT2 [12] = target: T4, hVMAT2; assay: Superfusion release of preloaded [3H]NE from HEK-hVMAT2 cells; format: cell-based
h5-HT1A receptor [13] = target: T5, h5-HT1A receptor (Homo sapiens, UniProt P08908); assay: [3H]8-OH-DPAT binding, HEK-h5-HT1A
T5 sequence (P08908 1-422): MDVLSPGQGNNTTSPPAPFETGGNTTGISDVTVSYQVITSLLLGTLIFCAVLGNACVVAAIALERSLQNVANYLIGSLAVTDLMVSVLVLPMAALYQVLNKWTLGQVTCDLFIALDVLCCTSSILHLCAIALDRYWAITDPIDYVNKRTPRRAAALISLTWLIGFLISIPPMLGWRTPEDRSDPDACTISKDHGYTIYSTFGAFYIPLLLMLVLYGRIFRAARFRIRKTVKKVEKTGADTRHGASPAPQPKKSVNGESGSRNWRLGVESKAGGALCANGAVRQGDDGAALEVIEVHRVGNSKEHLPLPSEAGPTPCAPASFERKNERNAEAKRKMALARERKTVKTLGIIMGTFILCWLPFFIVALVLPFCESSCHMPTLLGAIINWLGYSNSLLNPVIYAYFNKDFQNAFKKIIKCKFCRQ

h5-HT2A receptor [14] = target: T6, h5-HT2A receptor (Homo sapiens, UniProt P28223); assay: [125I]DOI binding, HEK-h5-HT2A
h5-HT2C receptor [15] = target: T7, h5-HT2C receptor (Homo sapiens, UniProt P28335); assay: biochemical; format: binding
T7 sequence (P28335 33-458): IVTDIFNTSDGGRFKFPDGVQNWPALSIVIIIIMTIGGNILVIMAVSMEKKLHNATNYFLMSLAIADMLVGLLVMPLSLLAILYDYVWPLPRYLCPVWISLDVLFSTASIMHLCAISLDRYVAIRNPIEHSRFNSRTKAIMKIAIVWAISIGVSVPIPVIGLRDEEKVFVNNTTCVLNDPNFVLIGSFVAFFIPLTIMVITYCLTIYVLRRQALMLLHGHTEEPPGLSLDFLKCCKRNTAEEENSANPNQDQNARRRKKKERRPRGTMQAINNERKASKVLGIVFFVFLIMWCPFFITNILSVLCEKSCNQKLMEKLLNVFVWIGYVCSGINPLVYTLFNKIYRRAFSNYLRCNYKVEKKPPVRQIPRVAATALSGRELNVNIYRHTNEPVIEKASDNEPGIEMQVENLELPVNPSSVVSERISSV

h5-HT1A receptor [16] = target: T5, h5-HT1A receptor; assay: Stimulation of [35S]GTPγS binding, HEK-h5-HT1A membranes; format: biochemical
h5-HT2A receptor [17] = target: T6, h5-HT2A receptor; assay: Inhibition of 5-HT-stimulated IP-1 formation; format: cell-based
h5-HT2C receptor [18] = target: T7, h5-HT2C receptor; assay: Inhibition of 5-HT-stimulated IP-1 formation; format: cell-based
hSigma1 receptor [19] = target: T8, hSigma1 receptor (Homo sapiens, UniProt Q99720); assay: [3H]; format: binding; settings: Inhibition of [3H]pentazocine binding Ki ± sem, hSigma1
human DA D1 receptor = human DA D1 receptor (Homo sapiens, UniProt P21728); assay: [3H]SCH23390 binding, LhD1 cells; settings: test drugs up to the maximal concentration tested (10 µM)
human DA D2 receptor = human DA D2 receptor (Homo sapiens, UniProt P14416); format: binding; settings: test drugs up to the maximal concentration tested (10 µM)
human DA D3 receptor = human DA D3 receptor (Homo sapiens, UniProt P35462); assay: [3H]YM-09151-2 binding, CHOp-D3 cells; settings: test drugs up to 10 µM; words give concentration range, 'low' = low nanomolar
human D4.4 receptor = target: T9, human D4.4 receptor (Homo sapiens, UniProt P21917); format: binding; settings: test drugs up to 10 µM; words give concentration range, 'low' = low nanomolar
T9 sequence (P21917 1-419): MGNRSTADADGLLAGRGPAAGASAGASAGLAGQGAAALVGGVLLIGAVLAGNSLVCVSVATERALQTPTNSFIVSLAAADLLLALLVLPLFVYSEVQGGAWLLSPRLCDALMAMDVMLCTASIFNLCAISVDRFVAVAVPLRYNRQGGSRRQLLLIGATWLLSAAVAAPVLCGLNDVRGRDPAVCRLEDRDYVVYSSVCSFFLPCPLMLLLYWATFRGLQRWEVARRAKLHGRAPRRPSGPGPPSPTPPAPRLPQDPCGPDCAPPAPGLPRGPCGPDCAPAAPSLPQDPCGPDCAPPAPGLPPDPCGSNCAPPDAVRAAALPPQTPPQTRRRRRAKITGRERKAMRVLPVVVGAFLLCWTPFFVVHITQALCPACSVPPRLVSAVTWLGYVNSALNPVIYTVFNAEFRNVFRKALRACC

h5-HT2C receptor [20] = target: T7, h5-HT2C receptor; format: cell-based; settings: data not shown
h5-HT2A receptor [21] = target: T6, h5-HT2A receptor; settings: data not shown
hSigma1 receptor [22] = target: T8, hSigma1 receptor; settings: read-out: hSigma1 Ki, published value; ref Lee et al., 2008; cited from earlier work
hDAT [23] = target: T1, hDAT; settings: read-out: Kd of radioligand, HEK-hDAT; ref Eshleman et al., 1999; cited from earlier work
hSERT [24] = target: T2, hSERT; settings: read-out: Kd of radioligand, HEK-hSERT; ref Eshleman et al., 1999; cited from earlier work
hNET [25] = target: T3, hNET; settings: read-out: Kd of radioligand, HEK-hNET; ref Eshleman et al., 1999; cited from earlier work

T2 sequence (P31645 whole entry): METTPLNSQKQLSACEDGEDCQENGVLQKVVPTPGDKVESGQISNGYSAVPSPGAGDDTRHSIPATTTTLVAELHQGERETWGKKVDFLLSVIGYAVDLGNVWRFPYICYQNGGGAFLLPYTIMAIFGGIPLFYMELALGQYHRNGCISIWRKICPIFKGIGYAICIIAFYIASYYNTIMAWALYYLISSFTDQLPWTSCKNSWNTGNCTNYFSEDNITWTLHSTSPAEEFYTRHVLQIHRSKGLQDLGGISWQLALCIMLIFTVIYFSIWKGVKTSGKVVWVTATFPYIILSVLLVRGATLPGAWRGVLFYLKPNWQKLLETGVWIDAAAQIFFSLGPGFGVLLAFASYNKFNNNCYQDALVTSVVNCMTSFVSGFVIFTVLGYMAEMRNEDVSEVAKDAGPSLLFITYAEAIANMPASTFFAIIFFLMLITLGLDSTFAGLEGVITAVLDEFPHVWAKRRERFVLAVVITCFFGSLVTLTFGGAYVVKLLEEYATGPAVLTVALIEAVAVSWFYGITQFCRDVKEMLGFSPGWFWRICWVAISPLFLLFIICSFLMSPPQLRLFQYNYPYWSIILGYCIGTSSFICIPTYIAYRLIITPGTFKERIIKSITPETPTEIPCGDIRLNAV
T1 sequence (Q01959 whole entry): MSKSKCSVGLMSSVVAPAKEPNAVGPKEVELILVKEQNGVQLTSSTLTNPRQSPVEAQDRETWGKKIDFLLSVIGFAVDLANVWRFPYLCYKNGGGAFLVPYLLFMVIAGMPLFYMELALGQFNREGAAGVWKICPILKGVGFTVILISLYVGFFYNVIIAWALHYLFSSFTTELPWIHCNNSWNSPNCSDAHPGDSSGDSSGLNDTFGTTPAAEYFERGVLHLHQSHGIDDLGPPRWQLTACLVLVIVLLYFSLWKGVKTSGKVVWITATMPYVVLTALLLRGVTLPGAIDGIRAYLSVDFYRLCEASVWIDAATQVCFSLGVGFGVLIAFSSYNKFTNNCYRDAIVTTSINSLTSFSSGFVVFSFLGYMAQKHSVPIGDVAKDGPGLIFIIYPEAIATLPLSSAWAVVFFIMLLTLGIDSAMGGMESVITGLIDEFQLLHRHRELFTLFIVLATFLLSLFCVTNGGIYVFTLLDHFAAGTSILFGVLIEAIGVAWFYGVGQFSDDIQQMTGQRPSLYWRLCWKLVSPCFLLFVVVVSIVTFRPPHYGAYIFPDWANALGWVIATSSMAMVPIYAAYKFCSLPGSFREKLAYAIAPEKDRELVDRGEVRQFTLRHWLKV
T6 sequence (P28223 whole entry): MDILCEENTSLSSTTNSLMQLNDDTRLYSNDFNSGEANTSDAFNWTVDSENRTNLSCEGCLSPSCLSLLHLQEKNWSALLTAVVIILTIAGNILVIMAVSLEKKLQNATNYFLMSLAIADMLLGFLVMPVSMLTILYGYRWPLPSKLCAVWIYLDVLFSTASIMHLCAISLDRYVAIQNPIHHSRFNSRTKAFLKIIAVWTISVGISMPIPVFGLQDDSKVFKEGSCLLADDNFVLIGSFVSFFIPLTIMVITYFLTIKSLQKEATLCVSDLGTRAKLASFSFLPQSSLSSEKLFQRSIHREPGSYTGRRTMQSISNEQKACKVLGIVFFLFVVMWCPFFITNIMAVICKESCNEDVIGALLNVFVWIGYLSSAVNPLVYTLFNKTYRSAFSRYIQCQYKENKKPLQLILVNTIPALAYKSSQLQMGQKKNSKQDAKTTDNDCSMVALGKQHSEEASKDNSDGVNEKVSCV
T3 sequence (P23975 whole entry): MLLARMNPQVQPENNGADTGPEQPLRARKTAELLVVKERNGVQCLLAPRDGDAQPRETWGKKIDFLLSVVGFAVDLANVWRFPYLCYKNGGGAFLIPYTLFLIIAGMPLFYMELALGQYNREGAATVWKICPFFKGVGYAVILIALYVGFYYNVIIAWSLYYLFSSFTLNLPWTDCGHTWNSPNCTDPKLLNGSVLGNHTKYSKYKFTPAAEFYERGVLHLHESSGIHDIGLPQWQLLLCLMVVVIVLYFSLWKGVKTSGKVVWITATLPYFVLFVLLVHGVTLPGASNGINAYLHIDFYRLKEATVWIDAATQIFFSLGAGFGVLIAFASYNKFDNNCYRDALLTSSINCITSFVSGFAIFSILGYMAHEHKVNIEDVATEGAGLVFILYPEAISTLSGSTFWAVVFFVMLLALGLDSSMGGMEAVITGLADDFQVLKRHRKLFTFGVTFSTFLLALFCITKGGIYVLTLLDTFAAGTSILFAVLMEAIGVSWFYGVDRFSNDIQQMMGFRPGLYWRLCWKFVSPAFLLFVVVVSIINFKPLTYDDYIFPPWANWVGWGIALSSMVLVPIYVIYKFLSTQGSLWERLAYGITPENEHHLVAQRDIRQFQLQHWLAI
T4 sequence (Q05940 whole entry): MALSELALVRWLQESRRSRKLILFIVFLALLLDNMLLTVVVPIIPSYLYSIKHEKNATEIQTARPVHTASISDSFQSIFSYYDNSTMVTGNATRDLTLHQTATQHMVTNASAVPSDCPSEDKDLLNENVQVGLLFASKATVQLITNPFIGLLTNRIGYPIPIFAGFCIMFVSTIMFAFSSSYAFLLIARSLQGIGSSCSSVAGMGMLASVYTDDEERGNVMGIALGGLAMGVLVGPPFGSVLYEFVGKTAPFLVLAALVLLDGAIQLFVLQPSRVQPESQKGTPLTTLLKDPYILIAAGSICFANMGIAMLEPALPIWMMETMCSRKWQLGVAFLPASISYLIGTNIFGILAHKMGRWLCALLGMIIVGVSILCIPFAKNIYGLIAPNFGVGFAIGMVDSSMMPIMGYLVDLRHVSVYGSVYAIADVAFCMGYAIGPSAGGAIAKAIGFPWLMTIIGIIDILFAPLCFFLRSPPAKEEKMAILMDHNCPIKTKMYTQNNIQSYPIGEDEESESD
T8 sequence (Q99720 whole entry): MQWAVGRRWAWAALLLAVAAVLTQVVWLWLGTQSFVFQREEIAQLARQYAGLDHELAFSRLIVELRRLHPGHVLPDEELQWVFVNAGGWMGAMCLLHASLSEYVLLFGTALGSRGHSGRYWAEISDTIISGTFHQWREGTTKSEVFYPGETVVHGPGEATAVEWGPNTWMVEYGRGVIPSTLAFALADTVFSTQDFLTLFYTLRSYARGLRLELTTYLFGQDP
Chain of human DA D2 receptor (P14416 whole entry): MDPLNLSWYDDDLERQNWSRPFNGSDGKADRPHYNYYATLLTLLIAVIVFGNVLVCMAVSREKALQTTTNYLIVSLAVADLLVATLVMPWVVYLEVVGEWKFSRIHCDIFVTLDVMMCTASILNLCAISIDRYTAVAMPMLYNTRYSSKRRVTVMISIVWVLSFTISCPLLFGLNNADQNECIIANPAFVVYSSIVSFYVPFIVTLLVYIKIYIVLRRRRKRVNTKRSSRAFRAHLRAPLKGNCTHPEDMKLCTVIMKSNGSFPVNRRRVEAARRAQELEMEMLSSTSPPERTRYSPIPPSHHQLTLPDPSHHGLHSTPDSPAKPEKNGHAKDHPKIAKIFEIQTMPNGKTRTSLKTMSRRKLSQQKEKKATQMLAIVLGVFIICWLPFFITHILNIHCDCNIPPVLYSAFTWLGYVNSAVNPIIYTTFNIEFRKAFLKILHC
Chain of human DA D1 receptor (P21728 whole entry): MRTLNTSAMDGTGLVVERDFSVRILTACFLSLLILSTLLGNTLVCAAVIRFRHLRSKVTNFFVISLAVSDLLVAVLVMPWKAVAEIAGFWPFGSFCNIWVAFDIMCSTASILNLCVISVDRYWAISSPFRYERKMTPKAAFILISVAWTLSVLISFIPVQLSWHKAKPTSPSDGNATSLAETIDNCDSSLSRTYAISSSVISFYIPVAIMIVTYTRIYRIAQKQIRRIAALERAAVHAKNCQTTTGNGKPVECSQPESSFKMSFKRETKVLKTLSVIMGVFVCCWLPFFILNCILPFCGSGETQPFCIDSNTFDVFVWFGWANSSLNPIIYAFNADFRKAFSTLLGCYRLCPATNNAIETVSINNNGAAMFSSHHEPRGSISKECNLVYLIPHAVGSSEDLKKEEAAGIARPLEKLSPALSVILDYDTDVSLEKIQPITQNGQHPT
Chain of human DA D3 receptor (P35462 whole entry): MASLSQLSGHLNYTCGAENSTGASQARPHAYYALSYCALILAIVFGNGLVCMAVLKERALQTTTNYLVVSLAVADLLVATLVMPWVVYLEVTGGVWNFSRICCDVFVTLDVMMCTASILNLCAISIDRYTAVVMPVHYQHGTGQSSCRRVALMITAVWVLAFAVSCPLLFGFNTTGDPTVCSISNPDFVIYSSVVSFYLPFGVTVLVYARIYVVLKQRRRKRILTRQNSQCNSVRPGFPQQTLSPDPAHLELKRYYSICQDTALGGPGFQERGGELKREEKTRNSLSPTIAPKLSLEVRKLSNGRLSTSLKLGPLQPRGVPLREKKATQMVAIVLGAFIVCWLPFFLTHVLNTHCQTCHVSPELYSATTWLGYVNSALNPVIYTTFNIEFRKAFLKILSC

In the case of `CN[C@@H](C)Cc1ccccc1` [METH, (+)methamphetamine, reference compound], the Ki (hDAT [1]) is reported as 3.96 ± 0.92 µM, the Ki (hSERT [2]) is reported as 241 ± 8.9 µM and the Ki (hNET [3]) is reported as 1.39 ± 0.12 µM. The IC50 (hDAT [4]) was 0.026 ± 0.01 µM, the “ratio of binding Ki to uptake IC50, hDAT” value (hDAT [4]; [125I]RTI-55 Ki / [3H]DA uptake IC50) was 152 and the IC50 (hSERT [5]) was 4.1 ± 1.3 µM. For the same molecule, the “ratio of binding Ki to uptake IC50, hSERT” value (hSERT [5]; [125I]RTI-55 Ki / [3H]5-HT uptake IC50) was 59, the IC50 (hNET [6]) was 0.026 ± 0.0077 µM and the “ratio of binding Ki to uptake IC50, hNET” value (hNET [6]) was 53. The EC50 (hDAT [7]) was 0.4 ± 0.12 µM, the “% maximum release ± sem, hDAT [3H]DA” value (hDAT [7]; relative to maximal AUC induced by METH (1 or 10 µM)) was 101.9 ± 4.9% and the “% maximum release ± sem, hSERT [3H]5-HT” value (hSERT [8]) was 97.6 ± 7.2%. The EC50 (hSERT [8]) was 22.4 ± 0.24 µM, the “fold less potent than PCA to induce [3H]5-HT release” value (hSERT [8]; EC50 compared to PCA) was 28 fold and the EC50 (hNET [9]) was 0.128 ± 0.036 µM. For the same molecule, the “% maximum release ± sem, hNET [3H]NE” value (hNET [9]; relative to maximal AUC induced by METH (0.3 or 1 µM)) was 92.7 ± 5.2%, the Ki (hVMAT2 [10]) was 920 ± 110 µM and the IC50 (hVMAT2 [11]) was 4.72 ± 0.61 µM. The EC50 (hVMAT2 [12]) was 79 ± 29 µM, the “Release of [3H]NE % maximum release ± sem or range, hVMAT2” value (hVMAT2 [12]) was 95.5 ± 2.1% and the Ki (h5-HT1A receptor [13]) was 5.9 ± 0.85 µM. For the same molecule, the Ki (h5-HT2A receptor [14]) was 43.5 ± 9.1 µM, the Ki (h5-HT2C receptor [15]) was 10.2 ± 2.9 µM and the EC50 (h5-HT1A receptor [16]) was 18.1 ± 4.2 µM. For the same molecule, the Emax (h5-HT1A receptor [16]; read-out: h5-HT1A Stimulation of [35S]GTPγS binding % maximum stimulation ± sem) was 66%, the IC50 (h5-HT2A receptor [17]) was 112 ± 12 µM and the “h5-HT2A Inhibition of 5-HT-stimulated IP-1 formation % maximum inhibition ± sem” value (h5-HT2A receptor [17]; 100 nM 5-HT, normalized to maximal inhibition by ketanserin (10 µM)) was 100.0 ± 0.0%. The IC50 (h5-HT2C receptor [18]) was greater than 1000 µM, the “h5-HT2C Inhibition of 5-HT-stimulated IP-1 formation % maximum inhibition ± sem” value (h5-HT2C receptor [18]; 100 nM 5-HT, normalized to maximal inhibition by SB242084 (1 µM)) was less than 3% and the Ki (hSigma1 receptor [19]) was 3.18 ± 0.74 µM. For the same molecule, the “affinity for the [3H]SCH23390 binding site, DA D1 receptor” value (human DA D1 receptor) was “no measurable affinity”, the “affinity for the [3H]YM-09151-2 binding site, DA D2 receptor” value (human DA D2 receptor) was “no measurable affinity” and the “affinity for the [3H]YM-09151-2 binding site, DA D3 receptor” value (human DA D3 receptor) was “no measurable affinity”. For the same molecule, the “affinity for the [3H]YM-09151-2 binding site, DA D4.4 receptor” value (human D4.4 receptor) was “no measurable affinity”, the “h5-HT2C agonist activity, inositol monophosphate” value (h5-HT2C receptor [20]) was “partial agonists with midmicromolar potencies” and the “h5-HT2A agonist activity, inositol monophosphate” value (h5-HT2A receptor [21]) was “partial agonist activity at millimolar concentrations”. The Ki (hSigma1 receptor [22]) was 5.2 µM.

For `COC(=O)[C@H]1[C@@H](c2ccc(I)cc2)C[C@@H]2CC[C@H]1N2C` [[^125I]RTI-55], the Kd (hDAT [23]) is given as 0.00183 ± 0.00021 µM, the Kd (hSERT [24]) is given as 0.00098 ± 0.00016 µM and the Kd (hNET [25]) is given as 0.0121 ± 0.0019 µM.
